In patent publication US8552199B2, “Substituted indanes, method for the production thereof, and use thereof as drugs” (Sanofi, priority 2009, dated 2013):

Target: human MCH receptor (Homo sapiens (Human), UniProt Q99705)
Test: calcium mobilization assay (FLIPR); functional IC50 values of MCH1R antagonists
Format: cell-based
Conditions: recombinant HEK293 cell line expressing the human MCH receptor, cellular calcium flux after addition of agonist (MCH)
Source text: Influence on the MCH Receptor in vitro; Determination of Functional IC50 Values of MCH1R Antagonists
Cloning of the cDNA for the human MCH receptor, preparation of a recombinant HEK293 cell line which expresses the human MCH receptor, and functional measurements with the recombinant cell line took place in analogy to the description by Audinot et al. (J. Biol. Chem. 2001, 276, 13554-13562). A difference from the reference was, however, the use of the plasmid pEAK8 from EDGE Biosystems (USA) for the construction of the expression vector. The host used for the transfection was a transformed HEK cell line named “PEAK Stable Cells” (likewise from EDGE Biosystems). Functional measurements of the cellular calcium flux after addition of agonist (MCH) in the presence of ligand of the invention took place with the aid of the FLIPR apparatus from Molecular Devices (USA), using protocols of the apparatus manufacturer. The compounds of the invention show a significant inhibition (>30%) of the signal induced by the agonist at a concentration of 100 μM, preferably at 10 μM, particularly preferably at 1 μM, very particularly preferably at 100 nM and very very particularly preferably at 10 nM.

human MCH receptor, sequence (Q99705 whole entry): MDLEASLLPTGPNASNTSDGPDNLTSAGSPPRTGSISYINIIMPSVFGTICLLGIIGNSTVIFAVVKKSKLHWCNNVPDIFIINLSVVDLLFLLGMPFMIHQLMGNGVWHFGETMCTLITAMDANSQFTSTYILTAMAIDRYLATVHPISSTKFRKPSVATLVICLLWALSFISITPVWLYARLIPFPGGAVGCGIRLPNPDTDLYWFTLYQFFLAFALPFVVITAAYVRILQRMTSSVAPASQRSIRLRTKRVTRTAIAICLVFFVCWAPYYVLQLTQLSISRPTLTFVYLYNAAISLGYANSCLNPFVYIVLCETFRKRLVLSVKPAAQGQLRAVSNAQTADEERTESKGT

Row | SMILES | IC50
1 | CN(C(=O)c1ccc(OCC2CC2)cc1)[C@@H]1Cc2ccc(CN3CCCCCC3)cc2C1 [Example 1-09] | 0.139 µM
2 | CN(C(=O)c1ccc(OCC2CC2)cc1)[C@@H]1Cc2ccc(CNCC3CCOCC3)cc2C1 [Example 1-15] | 0.123 µM
3 | CCN(C)Cc1ccc2c(c1)C[C@H](N(C)C(=O)c1ccc(OCC3CC3)cc1)C2 [Example 1-32] | 0.147 µM
4 | CN(C(=O)c1ccc(OCC2CC2)cc1)[C@@H]1Cc2ccc(CNCC3(C)CC3)cc2C1 [Example 1-34] | 0.121 µM
5 | CC[C@H](C)NCc1ccc2c(c1)C[C@H](N(C)C(=O)c1ccc(OCC3CC3)cc1)C2 [Example 1-36] | 0.198 µM
6 | CN(C(=O)c1ccc(OCC2CC2)cc1)[C@@H]1Cc2ccc(CN3CC[C@H](O)C3)cc2C1 [Example 1-38] | 0.115 µM
7 | CC1(C)CCN(Cc2ccc3c(c2)C[C@H](NC(=O)c2ccc(OC[C@@H]4CCCO4)cc2)C3)CC1 [Example 1-40] | 0.208 µM
8 | CN(C(=O)c1ccc(OC[C@@H]2CCCO2)cc1)[C@@H]1Cc2ccc(CNCC(C)(C)C)cc2C1 [Example 1-46] | 0.144 µM
9 | O=C(N[C@@H]1Cc2ccc(CN3CCCCCC3)cc2C1)c1ccc(OC[C@@H]2CCCO2)cn1 [Example 1-50] | 0.766 µM
10 | O=C(N[C@@H]1Cc2ccc(CNCCC3CC3)cc2C1)c1ccc(OCC2CC2)cn1 [Example 1-55] | 0.848 µM
11 | CC1(CNCc2ccc3c(c2)C[C@H](NC(=O)c2ccc(OCC4CC4)cn2)C3)CC1 [Example 1-58] | 1.04 µM
12 | CCCCOc1ccc(C(=O)N(C)[C@@H]2Cc3ccc(CN4C[C@@H]5CC[C@H]4C5)cc3C2)nc1 [Example 1-62] | 0.173 µM
13 | CCCCOc1ccc(C(=O)N(C)[C@@H]2Cc3ccc(CNCC4(C)CCOCC4)cc3C2)nc1 [Example 1-72] | 0.147 µM
14 | CN(C(=O)c1ccc(OCC2CC2)cn1)[C@@H]1Cc2ccc(CN3CCCCC3)cc2C1 [Example 1-81] | 0.179 µM
15 | CCCCOc1ccc(C(=O)N(C)[C@@H]2Cc3ccc([C@H]4CCCN4)cc3C2)cc1 [Example 2, 4-Butoxy-N-methyl-N-((R)-(R)-5-pyrrolidin-2-ylindan-2-yl)benzamide] | 0.255 µM
16 | CN1CCCC1c1ccc2c(c1)C[C@H](N(C)C(=O)c1ccc(OCC3CC3)cn1)C2 (stereo partly drawn) [Example 3-1, N-Methyl-N-[(R)-5-(1-methylpyrrolidin-2-yl)indan-2-yl]-5-cyclopropylmethoxypyridine-2-carboxamide] | 1.14 µM

Continued, values first:

Row | IC50 | SMILES
17 | 0.294 µM | CN(C(=O)c1ccc(OCC2CC2)cc1)[C@@H]1Cc2ccc(CN3CCC(C(C)(C)O)CC3)cc2C1 [Example 1-05]
18 | 0.144 µM | CN(C(=O)c1ccc(OCC2CC2)cc1)[C@@H]1Cc2ccc(CNCC(C)(C)C)cc2C1 [Example 1-23]
19 | 0.117 µM | COCCCNCc1ccc2c(c1)C[C@H](N(C)C(=O)c1ccc(OCC3CC3)cc1)C2 [Example 1-27]
20 | 0.111 µM | CN(C(=O)c1ccc(OCC2CC2)cc1)[C@@H]1Cc2ccc(CN3CCC3)cc2C1 [Example 1-31]
21 | 0.222 µM | CC(C)(C)CNCc1ccc2c(c1)C[C@H](NC(=O)c1ccc(OC[C@@H]3CCCO3)cc1)C2 [Example 1-42]
22 | 0.229 µM | CN(C(=O)c1ccc(OC[C@@H]2CCCO2)cc1)[C@@H]1Cc2ccc(CN3CC4CCC3CC4)cc2C1 [Example 1-47]
23 | 0.194 µM | CCCCOc1ccc(C(=O)N(C)[C@@H]2Cc3ccc(CNC[C@@H]4CCCO4)cc3C2)nc1 [Example 1-66]
24 | 0.777 µM | O=C1c2ccc(OC[C@@H]3CCCO3)cc2CCN1[C@@H]1Cc2ccc(CNC3CCCCC3)cc2C1 [Example 1-90]
